This is an account of results in patent US20070134326A1, “Composition for releasing a weak base for an extended period of time” (priority 2003, published 2007).

Data set [1] is described as follows: pH dependent solubility. In kind it is physicochemical. As to conditions: around pH 2 vs around pH 7.
In data set [2] the test system is glucose utilization. As to conditions: PK/PD model estimate, diabetic patients; FDA Briefing Document, Avandia IND 43,468; cited from earlier work.

On to `CN(CCOc1ccc(CC2SC(=O)NC2=O)cc1)c1ccccn1` (centres unmarked) [Compound A, 5-[4-[2-(N-methyl-N-(2pyridyl)amino)ethoxy]benzyl]thiazolidine-2,4-dione], for which the pH dependent solubility entry in data set [1] is reported as “more soluble in the acidic conditions of the stomach (around pH 2) than in the near neutral conditions of the lower intestine (around pH 7)”. The “concentration associated with half-maximal stimulation (SC50) of glucose utilization” value in data set [2] is approximately 52 ng/mL.
